Laboratory results reported in patent publication US20180267043A1, “USE OF BIOMARKERS FOR PREDICTING CLINICAL SENSITIVITY TO CANCER TREATMENT” (CELGENE CORPORATION, priority 2014, published 2018).

What was measured:
GSPT1 = biological target: T1, GSPT1 (Homo sapiens, UniProt P15170); assay: GSPT1 expression level in HEK 293FT cells after compound treatment; assay type: cell-based; details: CRBN+/+ cells, 10 hours, 100 nM or 1000 nM, compared to CRBN−/− cells
T1 construct: endogenous in cells; host or cells: HEK 293FT cells (CRBN+/+)
T1 sequence (P15170 whole entry): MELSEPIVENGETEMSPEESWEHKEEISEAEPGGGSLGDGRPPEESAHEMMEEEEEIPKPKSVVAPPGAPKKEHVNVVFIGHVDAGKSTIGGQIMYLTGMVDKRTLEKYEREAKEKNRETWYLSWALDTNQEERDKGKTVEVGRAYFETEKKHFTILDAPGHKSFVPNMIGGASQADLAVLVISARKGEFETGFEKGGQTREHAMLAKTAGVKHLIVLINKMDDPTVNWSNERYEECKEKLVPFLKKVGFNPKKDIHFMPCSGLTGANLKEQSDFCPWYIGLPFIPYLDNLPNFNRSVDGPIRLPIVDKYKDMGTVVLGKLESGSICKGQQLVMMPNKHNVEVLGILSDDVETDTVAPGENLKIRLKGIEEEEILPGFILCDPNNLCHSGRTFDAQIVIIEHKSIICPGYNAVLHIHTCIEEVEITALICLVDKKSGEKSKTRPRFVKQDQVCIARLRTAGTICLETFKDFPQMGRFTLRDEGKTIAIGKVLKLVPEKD
T1 sequence (Q96SW2 whole entry, further chain): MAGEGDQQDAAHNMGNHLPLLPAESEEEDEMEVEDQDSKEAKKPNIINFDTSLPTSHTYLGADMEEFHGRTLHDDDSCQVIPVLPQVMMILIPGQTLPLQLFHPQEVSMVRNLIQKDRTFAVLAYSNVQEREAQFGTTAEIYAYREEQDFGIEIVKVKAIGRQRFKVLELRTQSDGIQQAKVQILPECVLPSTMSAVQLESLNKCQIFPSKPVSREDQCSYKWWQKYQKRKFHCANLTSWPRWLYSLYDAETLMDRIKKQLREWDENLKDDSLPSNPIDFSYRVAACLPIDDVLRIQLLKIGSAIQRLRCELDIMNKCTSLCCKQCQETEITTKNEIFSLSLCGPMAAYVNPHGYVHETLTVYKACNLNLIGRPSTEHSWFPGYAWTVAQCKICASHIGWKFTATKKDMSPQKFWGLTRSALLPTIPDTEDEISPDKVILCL
T1 sequence (Q16531 whole entry partner): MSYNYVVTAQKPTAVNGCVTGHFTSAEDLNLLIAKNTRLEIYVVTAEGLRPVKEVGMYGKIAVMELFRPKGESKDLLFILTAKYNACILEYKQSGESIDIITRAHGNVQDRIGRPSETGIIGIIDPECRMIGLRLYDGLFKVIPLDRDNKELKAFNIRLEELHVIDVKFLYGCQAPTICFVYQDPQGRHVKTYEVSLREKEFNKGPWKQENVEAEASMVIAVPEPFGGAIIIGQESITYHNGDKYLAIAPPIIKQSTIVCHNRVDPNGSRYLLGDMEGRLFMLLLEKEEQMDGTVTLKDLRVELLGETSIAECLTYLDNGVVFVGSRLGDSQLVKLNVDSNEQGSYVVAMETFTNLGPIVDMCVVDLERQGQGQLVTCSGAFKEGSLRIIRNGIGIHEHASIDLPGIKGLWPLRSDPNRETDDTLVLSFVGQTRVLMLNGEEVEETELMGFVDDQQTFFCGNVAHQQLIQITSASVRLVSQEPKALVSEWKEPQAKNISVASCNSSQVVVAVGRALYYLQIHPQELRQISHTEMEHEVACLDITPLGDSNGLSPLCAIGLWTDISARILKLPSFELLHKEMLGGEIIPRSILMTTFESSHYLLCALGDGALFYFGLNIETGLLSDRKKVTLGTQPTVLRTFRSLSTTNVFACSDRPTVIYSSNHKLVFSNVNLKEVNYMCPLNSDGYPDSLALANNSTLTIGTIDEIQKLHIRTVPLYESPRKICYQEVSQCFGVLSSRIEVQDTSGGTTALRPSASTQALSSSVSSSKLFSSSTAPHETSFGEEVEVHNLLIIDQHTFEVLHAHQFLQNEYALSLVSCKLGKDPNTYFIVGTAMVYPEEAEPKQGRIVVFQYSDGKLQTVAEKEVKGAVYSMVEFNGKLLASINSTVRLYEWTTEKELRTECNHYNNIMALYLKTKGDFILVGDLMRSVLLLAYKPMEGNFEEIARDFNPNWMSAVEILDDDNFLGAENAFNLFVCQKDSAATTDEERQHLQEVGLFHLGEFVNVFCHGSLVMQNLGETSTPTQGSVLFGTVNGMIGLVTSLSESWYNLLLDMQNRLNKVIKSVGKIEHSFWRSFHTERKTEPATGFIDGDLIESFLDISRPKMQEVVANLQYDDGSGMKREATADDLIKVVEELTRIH

[1] = biological target: T2, mouse CRBN isoform 2 (IKZF1/3, GSPT1/2 as substrates) (Mus musculus, UniProt Q8C7D2, V380E); assay: Substrate degradation in CRBN−/− cells expressing mouse CRBN isoform 2 or mutants; assay type: cell-based; details: mouse CRBN isoform 2 V380E; 1 μM Compound C
T2 construct: expressed in transfected cells; host or cells: CRBN-/- cells (elsewhere: 293FT, CRISPR)
T2 sequence (Q8C7D2 whole entry V380E, canonical isoform): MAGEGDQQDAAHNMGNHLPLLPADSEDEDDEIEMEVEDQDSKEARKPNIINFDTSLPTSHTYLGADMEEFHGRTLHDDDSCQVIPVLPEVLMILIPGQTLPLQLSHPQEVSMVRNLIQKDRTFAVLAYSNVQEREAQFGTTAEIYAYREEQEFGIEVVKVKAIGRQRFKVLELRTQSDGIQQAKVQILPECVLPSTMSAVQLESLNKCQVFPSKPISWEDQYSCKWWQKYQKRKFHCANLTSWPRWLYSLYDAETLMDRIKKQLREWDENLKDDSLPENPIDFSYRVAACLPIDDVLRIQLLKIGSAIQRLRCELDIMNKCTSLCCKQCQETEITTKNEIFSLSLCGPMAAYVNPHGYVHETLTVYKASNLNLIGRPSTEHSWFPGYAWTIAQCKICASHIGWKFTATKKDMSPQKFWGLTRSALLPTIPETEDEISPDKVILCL
Excerpt: (§1) To test this hypothesis, specific mutations in the compound-binding domain of mouse CRBN isoform2 were generated, such as V380E and I391V. Wild type mouse CRBN isoform 2 or each mutant was introduced to CRBN−/− cells. […] Thus, in mouse CRBN isoform 2, V380E and I391V mutations are sufficient to trigger the degradation of IKZF1/3 and GSPT1/2, respectively.

[2] = biological target: T3, mouse CRBN isoform 2 (IKZF1/3, GSPT1/2 as substrates) (Mus musculus, UniProt Q8C7D2, I391V); assay: as above; assay type: cell-based; details: mouse CRBN isoform 2 I391V; 10 μM lenalidomide or 1 μM Compound C
T3 construct: expressed in transfected cells; host or cells: CRBN-/- cells (elsewhere: 293FT, CRISPR)
T3 sequence (Q8C7D2 whole entry I391V, canonical isoform): as the sequence (Q8C7D2 whole entry V380E, canonical isoform) above, with E380V, I391V counted along it
Excerpt: as §1

[3] = tested on: GSPT1, IKZF1, IKZF3, UPR or apoptosis pathways; assay: Protein level of UPR and apoptosis components in DF15 cells; assay type: cell-based, human; details: DF15, 20 nM, 5 or 10 hours
Protocol: Cells were treated with DMSO alone or 20 nM Compound C. After 5 or 10 hours, the expression level of various cellular components along UPR or apoptosis pathways was measured. […] Loss of BIP immunoreactivity indicates an induction of UPR.

[4] = tested on: KG1, DF15, AML3, and 293FT; assay: Sensitivity to compound-induced ER stress and apoptosis, KG1, DF15, AML3, 293FT; assay type: cell-based, human
Protocol: The GSPT1 dependency was shown by GSPT1-specific shRNA knockdown experiment. The GSPT1 degradation efficiency was shown by Western Blot. The induction of ATF3 or DDIT3 was measured by quantitative RT-PCR. […] Time needed for Compound C-induced ER stress or Compound C-induced apoptosis was summarized. […] High ER demand may contribute to the sensitivity of certain cancer cells to the treatment of Compound C.

GSPT1 and eRF1 [5] = biological target: T4, GSPT1 and eRF1 (Homo sapiens, UniProt P15170+); assay: Immunoblotting of GSPT1 and eRF1 in 293FT HEK cells; assay type: cell-based
T4 construct: endogenous in cells; host or cells: 293FT HEK cells
Protocol: (§2) CRBN+/+(293FT parental) cells were treated in parallel with CRBN−/− (CRISPR) cells, CRBN−/− cells expressing CRBN isoform 2, and CRBN−/− cells expressing CRBN isoform 2 with a W385A mutation.

GSPT1 and eRF1 [6] = assay: as above; assay type: cell-based, human; details: CRBN−/− cells with CRBNiso2 or CRBNiso2 W385A mutant
Protocol: as §2

DF15 = assay: CellTiter-Glo cell viability assay after GSPT1 knockdown, DF15; assay type: cell-based, human; details: DF15 expressing shGSPT1-1 or shGSPT1-3 vs parental or control shRNA, 0.01 nM to 0.1 μM, day 9
Protocol: The effect of depletion of GSPT1 on the anti-proliferative effect of Compound C was determined in human multiple myeloma (MM) cell lines DF15 and RPMI-8226. Treatment compounds were titrated from 0.01 nM to 0.1 μM. Cell proliferation was measured by the CellTiter-Glo cell viability assay (RLU-Relative Luminescent Unit) at day 9 after GSPT1 knockdown by shGSPT1-1 or shGSPT1-3.

U937 = assay: CellTiter-Glo cell viability assay, U937; assay type: cell-based, human; details: 48 hours
Protocol: The effect of overexpression of GSPT1 on the anti-proliferative effect of Compound C was determined in human histiocytic lymphoma cell line U937 and human leukemia cell line Molm13. Treatment compounds were titrated from 0.1 nM to 1 μM. Cell proliferation was measured by CellTiter-Glo cell viability assay at 48 hours after treatment.

[7] = tested on: Human Acute Myeloblastic Leukemia Cell Line KG1; assay: Anti-proliferative effect after GSPT1 knockdown, KG1 (FIG. 12A); assay type: cell-based
[8] = tested on: CRBN and its substrates IKZF1, GSPT1, GSPT2; assay: In vitro binding assay, anti-HA immunoprecipitation and immunoblotting; details: cell lysates
Protocol: CRBN−/− cells expressing HA-tagged substrates were lysed and incubated with anti-HA antibody to pull down substrates. CRBN positive cells expressing shGSPT1 that specifically knocks down GSPT1 were lysed, then mixed with the substrates obtained from CRBN−/− cells. The mixture was incubated with DMSO alone or compounds. Immunoprecipitation using anti-HA antibody was performed. Then, immunoblotting was performed using anti-CRBN or anti-HA antibodies.

XBP1 and ATF6 pathways = assay: RNA level of XBP1 and ATF6 pathway components in DF15 MM cells; assay type: cell-based, human; details: DF15, 20 nM, 5, 10, or 23 hours
Protocol: The mechanism of Compound C-activated XBP1 and ATF6 pathways was studied in DF15 MM cells. Cells were treated with DMSO or 20 nM Compound C for 5, 10, or 23 hours. The RNA level of variant cellular components along the XBP1 and ATF6 pathways was measured and normalized with GAPDH.

[9] = tested on: Aiolos, CK1a, GSPT1 in OCI-LY10; assay: Western blot analysis in lymphoma cell line OCI-LY10; assay type: cell-based; details: OCI-LY10, 100 μM Compound C, 6 hours
Excerpt: Cells were harvested with RIPA buffer, and proteins from cell lysates were separated by 10% sodium dodecyl sulfate polyacrylamide (SDS-PAGE) gel electrophoresis (Bio-Rad), then transferred to PVDF membranes (Invitrogen). Immunoblots were probed with antibodies recognizing Aiolos (9-9-7; Celgene), CK1a (Abcam), GSPT1 (Sigma), ZFP91 (LSBio) and β-actin (Li-Cor). Signals were detected with a Li-Cor Odyssey imager.

## Cc1ccc(NC(=O)NCc2ccc3c(c2)CN(C2CCC(=O)NC2=O)C3=O)cc1Cl (centres unmarked) [Compound C, 1-(3-chloro-4-methylphenyl)-3-((2-(2,6-dioxopiperidin-3-yl)-1-oxoisoindolin-5-yl)methyl)urea]
GSPT1
  GSPT1 expression level: GSPT1 is degraded in CRBN+/+ cells
[1]
  Degradation of GSPT1/2: restores Compound C-induced degradation of GSPT1/2
[2]
  Degradation of IKZF1/3: restores both lenalidomide- and Compound C-induced degradation of IKZF1/3
[3]
  Degradation of GSPT1, IKZF1, and IKZF3: induces degradation of GSPT1, IKZF1, and IKZF3
  Immunoreactivity of antibodies recognizing KDEL motif and BIP C-terminal epitope: loss of immunoreactivity
  Level of pEIF2α, ATF4, ATF3, DDIT3, cleaved caspase 3, and cleaved PARP: increases the level
[4]; KG1, DF15, AML3, and 293FT
  Sensitivity to the compound: exhibit different levels of sensitivity to Compound C
[4]; cancer cell lines of FIG. 21
  Order in time of compound-induced ER stress and apoptosis: Compound C-induced ER stress precedes Compound C-induced apoptosis
GSPT1 and eRF1 [5]; CRBN+/+ (293FT parental) cells
  Degradation of GSPT1 and eRF1: induces degradation of GSPT1 and eRF1 in CRBN+/+ cells
GSPT1 and eRF1 [5]; CRBN+/+ cells with overexpression of GSPT1
  Degradation of GSPT1 and eRF1: reduces this degradation effect
GSPT1 and eRF1 [6]
  Degradation of GSPT1 and eRF1: restores Compound C-induced degradation of GSPT1 and eRF1
DF15
  Anti-proliferative effect: increased anti-proliferative effect
U937; U937, exogenous GSPT1 overproduced via EF1a promoter
  Anti-proliferative effect: the anti-proliferative effect of Compound C reduces
U937; U937 CRBN −/− cells
  Anti-proliferative effect: completely abolished
U937; U937 parental cells, 0.1 nM to 1 μM
  Cell proliferation: inhibits cell proliferation
[7]; KG1 (FIG. 12A)
  Anti-proliferative effect: exhibited anti-proliferative effect
[7]; KG1, GSPT1 downregulated by shGSPT1-1 or shGSPT1-3
  Anti-proliferative effect: the anti-proliferative effect increased
[8]
  Interaction between CRBN and GSPT1 or GSPT2: promotes the interaction
  Interaction between CRBN and IKZF1: promotes the interaction
XBP1 and ATF6 pathways
  RNA level of ATF6 pathway components (XBP1, EDEM1, HYOU1, HSPA5): induces expression
  RNA level of XBP1 pathway components (SEC24D, DNAJB9, XBP1, EDEM1, HYOU1): induces expression
[9]
  Aiolos and CK1a protein levels: also reduce
  GSPT1 protein level: reduces
